From ChEMBL document CHEMBL5375989, “Pioneering 4,11-Dioxo-4,11-dihydro-1H-anthra[2,3-d]imidazol-3-ium Compounds as Promising Survivin Inhibitors by Targeting ILF3/NF110 for Cancer Therapy” (J Med Chem, 2023)
Active and inactive are the calls of the source. No cut-off for these calls is given here.

Experiments:
A549 [1] = assay: Antitumor activity against human A549 cells xenografted in BALB/c nude mouse assessed as inhibition of tumor growth at 2 mg/kg, sc administered every 2 days for 14 days; format: functional, organism-based; conditions: time 14.0 day
[2] = Toxicity in BALB/c nude mouse assessed as side effects at 2 mg/kg, sc administered every 2 days for 14 days; format: organism-based; conditions: in vivo, 336 h, time 14 day
[3] = Toxicity in BALB/c mouse assessed as appearance of spotty necrosis of hepatocytes at 2 mg/kg by H and E staining based analysis; format: organism-based; conditions: in vivo
A549 [4] = assay: Antitumor activity against human A549 cells xenografted in BALB/c nude mouse assessed as appearance of various size of tumor necrosis at 2 mg/kg measured after 14 days by H and E staining based analysis; format: functional, organism-based; conditions: time 14.0 day
[5] = Toxicity in BALB/c nude mouse assessed as effect on body weight at 2 mg/kg, sc administered every 2 days for 14 days; format: organism-based; conditions: in vivo, 336 h, time 14 day
A549 [6] = assay: Antitumor activity against human A549 cells xenografted in BALB/c nude mouse assessed as decrease in tumor cell proliferation at 2 mg/kg measured after 14 days by Ki67 staining based analysis; format: functional, organism-based; conditions: time 14.0 day
A549 [7] = assay: Antitumor activity against human A549 cells xenografted in BALB/c nude mouse assessed as decrease in tumor cell proliferation at 2 mg/kg measured after 14 days by PCNA staining based analysis; format: functional, organism-based; conditions: time 14.0 day
[8] = Toxicity in BALB/c mouse assessed as appearance of severe damage to spleen tissue at 2 mg/kg by H and E staining based analysis; format: organism-based; conditions: in vivo
A549 [9] = assay: Antitumor activity against human A549 cells xenografted in BALB/c nude mouse assessed as increase in apoptosis at 2 mg/kg measured after 14 days by tunel staining based analysis; format: functional, organism-based; conditions: time 14.0 day
[10] = Toxicity in BALB/c mouse assessed as appearance of acidophilic degeneration of myocardial cells at 2 mg/kg by H and E staining based analysis; format: organism-based; conditions: in vivo
[11] = Toxicity in BALB/c mouse assessed as morphological changes with karyopyknosis in spleen at 2 mg/kg by H and E staining based analysis; format: organism-based; conditions: in vivo
[12] = Selectivity index, ratio of IC50 for mouse L929 cells to IC50 for human A549 cells; format: toxicity; conditions: L929 cells and A549 cells, read-out: Ratio IC50
[13] = Toxicity in BALB/c mouse assessed as varying degree of multifocal alveolar luminal hemorrhage at 2 mg/kg by H and E staining based analysis; format: organism-based; conditions: in vivo
[14] = Toxicity in BALB/c mouse assessed as appearance of condensed nuclei at 2 mg/kg by H and E staining based analysis; format: organism-based; conditions: in vivo
[15] = Toxicity in BALB/c mouse assessed as disappearance of nuclei at 2 mg/kg by H and E staining based analysis; format: organism-based; conditions: in vivo
[16] = Drug distribution in BALB/C nude mouse heart xenografted with human A549 cells at 2 mg/kg measured after 2 to 6 hrs by UPLC-3Q analysis; format: ADME, organism-based; conditions: in vivo, time 2-6 hrs
[17] = Drug metabolism in BALB/C nude mouse kidney xenografted with human A549 cells at 2 mg/kg measured after 2 to 6 hrs by UPLC-3Q analysis; format: ADME, organism-based; conditions: in vivo, time 2-6 hrs
[18] = Antiproliferative activity against human MRC5 cells assessed as inhibition of cell growth measured after 48 hrs by MTT assay; format: toxicity, cell-based; conditions: human, MRC5 cells
[19] = Antiproliferative activity against human HUVEC cells assessed as inhibition of cell growth measured after 48 hrs by MTT assay; format: toxicity, cell-based; conditions: human, HUVEC cells
[20] = Drug uptake in Sprague-Dawley rat blood at 2 mg/kg measured after 2 hrs by UPLC-3Q analysis; format: ADME, organism-based; conditions: in vivo
[21] = Toxicity in BALB/c mouse assessed as appearance of renal tubular necrosis in cortex at 2 mg/kg by H and E staining based analysis; format: organism-based; conditions: in vivo
[22] = Toxicity in BALB/c mouse assessed as morphological changes with karyorrhexis in spleen at 2 mg/kg by H and E staining based analysis; format: organism-based; conditions: in vivo
[23] = molecular target: T1, Interleukin enhancer-binding factor 3 (Homo sapiens, UniProt Q12906); assay: Binding affinity to ILF3 (unknown origin) assessed as dissociation constant at upto 1 uM by SPR method
T1 sequence (Q12906 whole entry): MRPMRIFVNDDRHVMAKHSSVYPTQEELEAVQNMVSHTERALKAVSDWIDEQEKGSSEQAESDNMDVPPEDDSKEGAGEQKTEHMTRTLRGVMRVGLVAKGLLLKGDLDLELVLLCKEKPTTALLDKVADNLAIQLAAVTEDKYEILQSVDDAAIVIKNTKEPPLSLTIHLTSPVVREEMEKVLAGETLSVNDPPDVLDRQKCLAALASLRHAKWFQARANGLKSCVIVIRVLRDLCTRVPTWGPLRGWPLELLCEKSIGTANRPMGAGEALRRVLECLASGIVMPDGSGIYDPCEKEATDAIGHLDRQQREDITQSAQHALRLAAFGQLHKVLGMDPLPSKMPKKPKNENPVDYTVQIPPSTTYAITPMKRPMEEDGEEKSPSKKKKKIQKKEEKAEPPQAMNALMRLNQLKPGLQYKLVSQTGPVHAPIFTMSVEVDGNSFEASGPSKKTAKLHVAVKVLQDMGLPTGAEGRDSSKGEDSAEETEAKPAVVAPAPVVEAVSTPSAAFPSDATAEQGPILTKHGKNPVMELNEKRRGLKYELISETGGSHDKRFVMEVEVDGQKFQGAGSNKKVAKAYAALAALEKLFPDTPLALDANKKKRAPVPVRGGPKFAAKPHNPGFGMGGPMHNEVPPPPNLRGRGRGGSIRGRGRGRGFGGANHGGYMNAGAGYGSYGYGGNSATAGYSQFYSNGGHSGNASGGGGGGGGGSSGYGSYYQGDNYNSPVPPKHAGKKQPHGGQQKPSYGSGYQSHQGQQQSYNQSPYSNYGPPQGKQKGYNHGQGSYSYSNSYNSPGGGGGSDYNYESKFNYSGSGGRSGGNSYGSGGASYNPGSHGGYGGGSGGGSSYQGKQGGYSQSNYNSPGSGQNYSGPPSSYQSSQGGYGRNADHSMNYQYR

[24] = Antiproliferative activity against mouse NIH3T3 cells assessed as inhibition of cell growth measured after 48 hrs by MTT assay; format: toxicity, cell-based; conditions: mouse, NIH3T3 cells
A549 [25] = assay: Induction of apoptosis in human A549 cells assessed as early apoptotic cells at 0.04 uM measured after 48 hrs by annexin V and PI staining based flow cytometry analysis (reference value: 0.71%); format: functional
A549 [26] = assay: Induction of apoptosis in human A549 cells assessed as early apoptotic cells at 0.1 uM measured after 48 hrs by annexin V and PI staining based flow cytometry analysis (reference value: 0.71%); format: functional
A549 [27] = assay: cells; conditions: Homo sapiens, A549, 48 h
Description: Antiproliferative activity against human A549 cells assessed as inhibition of cell growth measured after 48 hrs by MTT assay

A549 [28] = assay: Induction of apoptosis in human A549 cells assessed as early apoptotic cells at 0.25 uM measured after 48 hrs by annexin V and PI staining based flow cytometry analysis (reference value: 0.71%); format: functional
MCF7 = assay: Antiproliferative activity against human MCF7 cells assessed as inhibition of cell growth measured after 48 hrs by MTT assay; format: functional, cell-based; conditions: MCF7, 48 h
A549 [29] = assay: Induction of apoptosis in human A549 cells assessed as late apoptotic cells at 0.1 uM measured after 48 hrs by annexin V and PI staining based flow cytometry analysis (reference value: 4.70%); format: functional
A549 [30] = assay: Induction of apoptosis in human A549 cells assessed as necrotic cells at 0.1 uM measured after 48 hrs by annexin V and PI staining based flow cytometry analysis (reference value: 1.47%); format: functional
A549 [31] = assay: Induction of apoptosis in human A549 cells assessed as late apoptotic cells at 0.25 uM measured after 48 hrs by annexin V and PI staining based flow cytometry analysis (reference value: 4.70%); format: functional
PANC-1 = assay: Antiproliferative activity against human PANC-1 cells assessed as inhibition of cell growth measured after 48 hrs by MTT assay; format: functional, cell-based; conditions: Homo sapiens, PANC-1, 48 h
A549 [32] = assay: Induction of apoptosis in human A549 cells assessed as viable cells at 0.04 uM measured after 48 hrs by annexin V and PI staining based flow cytometry analysis (reference value: 93.3%); format: functional
A549 [33] = assay: Induction of apoptosis in human A549 cells assessed as late apoptotic cells at 0.04 uM measured after 48 hrs by annexin V and PI staining based flow cytometry analysis (reference value: 4.70%); format: functional
A549 [34] = assay: Induction of apoptosis in human A549 cells assessed as necrotic cells at 0.04 uM measured after 48 hrs by annexin V and PI staining based flow cytometry analysis (reference value: 1.47%); format: functional
NCI-H460 = assay: Antiproliferative activity against human NCI-H460 cells assessed as inhibition of cell growth measured after 48 hrs by MTT assay; format: functional, cell-based; conditions: Homo sapiens, NCI-H460, 48 h
A549 [35] = assay: Induction of apoptosis in human A549 cells assessed as necrotic cells at 0.25 uM measured after 48 hrs by annexin V and PI staining based flow cytometry analysis (reference value: 1.47%); format: functional
A549 [36] = assay: Induction of apoptosis in human A549 cells assessed as viable cells at 0.25 uM measured after 48 hrs by annexin V and PI staining based flow cytometry analysis (reference value: 93.3%); format: functional
A549 [37] = assay: Induction of apoptosis in human A549 cells assessed as viable cells at 0.1 uM measured after 48 hrs by annexin V and PI staining based flow cytometry analysis (reference value: 93.3%); format: functional
[38] = Antiproliferative activity against mouse L929 cells assessed as inhibition of cell growth measured after 48 hrs by MTT assay; format: toxicity, cell-based; conditions: mouse, L929 cells
ASPC1 = assay: Antiproliferative activity against human ASPC1 cells assessed as inhibition of cell growth measured after 48 hrs by MTT assay; format: functional, cell-based; conditions: aspc1
143B = assay: Antiproliferative activity against human 143B cells assessed as inhibition of cell growth measured after 48 hrs by MTT assay; format: functional, cell-based; conditions: Homo sapiens, 143B, 48 h
HepG2 = assay: Antiproliferative activity against human HepG2 cells assessed as inhibition of cell growth measured after 48 hrs by MTT assay; format: functional, cell-based; conditions: Homo sapiens, HepG2, 48 h
HeLa = assay: Antiproliferative activity against human HeLa cells assessed as inhibition of cell growth measured after 48 hrs by MTT assay; format: functional, cell-based; conditions: Homo sapiens, HeLa, 48 h
NCI-H1299 = assay: Antiproliferative activity against human NCI-H1299 cells assessed as inhibition of cell growth measured after 48 hrs by MTT assay; format: functional, cell-based; conditions: Homo sapiens, NCI-H1299, 48 h
BXPC-3 = assay: Antiproliferative activity against human BXPC-3 cells assessed as inhibition of cell growth measured after 48 hrs by MTT assay; format: functional, cell-based; conditions: Homo sapiens, BXPC-3, 48 h

Description for 5637: Antiproliferative activity against human 5637 cells assessed as inhibition of cell growth measured after 48 hrs by MTT assay
Description for TE-1: Antiproliferative activity against human TE-1 cells assessed as inhibition of cell growth measured after 48 hrs by MTT assay

COc1cccc2c1C(=O)c1c(O)c3c(c(O)c1C2=O)C[C@@](O)(C(=O)CO)C[C@@H]3O[C@H]1C[C@H](N)[C@H](O)[C@H](C)O1 [DOXORUBICIN]
Activity (A549 [1]): Active | Activity [2]: Toxic | Activity [3]: Toxic | Activity (A549 [4]): Active | Activity [5]: Toxic | Activity (A549 [6]): Active | Activity (A549 [7]): Active | Activity [8]: Toxic | Activity (A549 [9]): Active | Activity [10]: Toxic

COCCn1c2c([n+](Cc3cnccn3)c1C)C(=O)c1ccccc1C2=O.[Br-] [SEPANTRONIUM BROMIDE]
Activity [11]: Toxic | selectivity ratio [12]: 970 | Activity [13]: Toxic | Activity [14]: Toxic | Activity [15]: Toxic | Drug uptake [16]: Active | Drug metabolism [17]: Metabolite_Detected | IC50 at 48 h [18]: 1940 nM | IC50 at 48 h [19]: 920 nM | Drug uptake [20]: Not Active | Activity [21]: Toxic | Activity [22]: Toxic | Kd [23]: 571 nM | IC50 at 48 h [24]: 13600 nM

Cn1c[n+](C)c2c1C(=O)c1cc3ccccc3cc1C2=O.[Br-]
Activity (A549 [25]): 1.6% | Activity (A549 [26]): 0.55% | IC50 (A549 [27]): 10 nM | Activity (A549 [28]): 0.22% | IC50 (MCF7): 60 nM | Activity (A549 [29]): 79.7% | Activity (A549 [30]): 11.5% | IC50 5637: 110 nM | Activity (A549 [31]): 89.2% | IC50 (PANC-1): 90 nM | Activity (A549 [32]): 25.3% | Activity (A549 [33]): 58.5% | Activity (A549 [34]): 13.9% | IC50 (NCI-H460): 160 nM | IC50 at 48 h [18]: 3980 nM | IC50 (TE-1): 30 nM | Activity (A549 [35]): 7.92% | IC50 at 48 h [19]: 10500 nM | Activity (A549 [36]): 2.43% | Activity (A549 [37]): 8.24% | IC50 at 48 h [38]: 13600 nM | IC50 (ASPC1): 110 nM | IC50 (143B): 410 nM | IC50 (HepG2): 360 nM | IC50 (HeLa): 1860 nM | IC50 at 48 h [24]: 14200 nM | IC50 (NCI-H1299): 540 nM | IC50 (BXPC-3): 110 nM
